Measurements reported in US20220033448A1, “METHODS FOR AGGREGATION OF PROTEINS” (priority 2011, published 2022).
No end group written: not given here.

What was measured:
EGFR family = experiment: EGF-induced ERK1/2 phosphorylation in HeLa cells (cross reactivity of VEGFR2 peptides); format: cell-based, human; settings: EGF 25 ng/ml
Procedure: As a next step, to test the specificity of the VEGFR2 peptides, we tested their cross reactivity towards the EGFR family. Therefore, HeLa cells were treated with peptide B8 and B12 and subsequently stimulated with EGF (25ng/ml).

mVEGFR2 = target: T1, mVEGFR2 (Mus musculus, UniProt P35918); experiment: Immunohistochemical staining of mVEGFR2 in HEK293 cells (cellular localization); format: cell-based; settings: 10 μM, overnight treatment
T1 construct: expressed in transfected cells; host or cells: HEK293
T1 sequence (P35918 20-1345): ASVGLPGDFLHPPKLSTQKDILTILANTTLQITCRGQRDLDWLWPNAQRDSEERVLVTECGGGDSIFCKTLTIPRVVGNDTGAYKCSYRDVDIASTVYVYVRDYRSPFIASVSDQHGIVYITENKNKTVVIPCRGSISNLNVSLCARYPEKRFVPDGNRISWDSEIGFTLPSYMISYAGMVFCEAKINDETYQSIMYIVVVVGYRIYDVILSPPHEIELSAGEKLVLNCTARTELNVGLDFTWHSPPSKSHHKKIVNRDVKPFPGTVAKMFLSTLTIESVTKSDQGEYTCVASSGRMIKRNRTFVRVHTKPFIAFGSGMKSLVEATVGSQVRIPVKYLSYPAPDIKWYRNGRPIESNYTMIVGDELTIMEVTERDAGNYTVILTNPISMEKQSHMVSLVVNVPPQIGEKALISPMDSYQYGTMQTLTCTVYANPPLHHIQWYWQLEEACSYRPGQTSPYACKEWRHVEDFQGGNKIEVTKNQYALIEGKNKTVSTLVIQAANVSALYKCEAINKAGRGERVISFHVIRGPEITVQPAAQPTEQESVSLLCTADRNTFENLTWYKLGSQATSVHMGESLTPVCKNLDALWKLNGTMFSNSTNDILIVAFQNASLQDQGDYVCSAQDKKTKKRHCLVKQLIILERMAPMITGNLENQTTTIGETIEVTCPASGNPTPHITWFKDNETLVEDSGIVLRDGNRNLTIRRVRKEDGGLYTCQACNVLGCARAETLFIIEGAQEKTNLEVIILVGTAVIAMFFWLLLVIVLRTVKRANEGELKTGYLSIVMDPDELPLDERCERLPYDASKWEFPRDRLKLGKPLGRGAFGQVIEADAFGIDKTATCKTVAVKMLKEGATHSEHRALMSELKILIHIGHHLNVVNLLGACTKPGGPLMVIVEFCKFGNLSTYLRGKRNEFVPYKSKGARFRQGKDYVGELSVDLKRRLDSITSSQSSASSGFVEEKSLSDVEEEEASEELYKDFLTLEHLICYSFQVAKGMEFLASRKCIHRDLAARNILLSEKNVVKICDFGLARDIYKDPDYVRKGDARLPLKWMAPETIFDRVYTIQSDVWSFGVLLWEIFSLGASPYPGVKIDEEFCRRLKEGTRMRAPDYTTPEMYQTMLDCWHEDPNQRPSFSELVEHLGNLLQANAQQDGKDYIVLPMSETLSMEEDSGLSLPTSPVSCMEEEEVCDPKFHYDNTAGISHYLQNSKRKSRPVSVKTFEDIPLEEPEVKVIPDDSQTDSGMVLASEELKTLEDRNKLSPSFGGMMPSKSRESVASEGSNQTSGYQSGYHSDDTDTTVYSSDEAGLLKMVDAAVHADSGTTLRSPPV
Procedure: To better understand the cellular mechanism of peptide inhibition, a preliminary experiment was performed in which cells were stained with an anti-VEGFR2 antibody to track the cellular localization.

human erythrocytes = format: cell-based
Text: The detergent Tween was used as a positive control, causing 100% lysis of RBCs.

Candida albicans SC5314 = experiment: In vitro mature C. albicans biofilm formation on polystyrene (XTT reduction assay); format: cell-based; settings: 250 μM, 50 μM and 10 μM; peptide during adhesion only or during whole biofilm development; p<0.001
Procedure: The initial screening and search for optimal Als3 candidate interferors was based on the C. albicans SC5314 adhesion assay on 96-well polystyrene plates upon administration of all the peptides at three different concentrations (250 μM, 50 μM and 10 μM). Based on the results obtained with this adhesion assay, we also tested the effect of peptides on mature biofilm development. The final election of the most optimal candidate interferor peptides was based on the results showing reduction in adhesion and mature biofilm formation caused by the lowest concentration of the peptide tested (10 μM or 2.5 μM).
In a next step, lower concentrations of peptide F9 (50 μM, 10 μM and 2.5 μM) were also tested. […] Both assays were performed in 96-well polystyrene plates and quantified by the XTT reduction assay (see material and methods section).
In vitro C. albicans biofilm was studied on three different types of biomaterials, namely flat bottom 96-well polystyrene plate (Greiner Bio-One, Germany), silicone (CS Hyde, USA) and polyurethane triple lumen intravenous catheters (2.4mm diameter) (Arrow International Reading, USA). […] After that, the biofilms were washed twice with 1×PBS and quantified.
The metabolic activity of Candida cells within in vitro biofilms was studied using the XTT reduction assay. […] The intensity of colorimetric change was measured by spectrophotometer (Spectra max Plus 384) at 490 nm. […]

S. aureus ATCC 27853 = experiment: Invasion assay: bacteria in infected HCT116 cell monolayers (CFU count); format: cell-based; settings: 100 μg/ml, 90 minutes infection, 1 h treatment
Procedure: In this assay HCT116 cell monolayers (a human colon tumor cell line) were cultured at the bottom of a microwell plate. The next day fresh S. aureus ATCC 27853 bacteria were added (approximately 10^6 CFU/ml) and a negative uninfected control included. After 90 minutes of infection different dilution of peptides were added and the cultures were incubated for another hour. As a positive control Gentamycin was used, given that it has a good intracellular activity. Each well was washed with pre-warmed physiological water to get rid of any extra-cellular bacteria, followed by 1% Triton treatment to release all entrapped bacteria from mammalian cells. The content of the well was serially diluted and plated on TSA agar plates for CFU count.

Corynebacterium = settings: peptides with purity of >95%
β-Gal [1] = target: T2, β-Gal (Escherichia coli, UniProt P00722); settings: 3-state model; 25° C.; 0-4 μM peptide
T2 sequence (P00722 2-1024 with the stated changes limits assumed): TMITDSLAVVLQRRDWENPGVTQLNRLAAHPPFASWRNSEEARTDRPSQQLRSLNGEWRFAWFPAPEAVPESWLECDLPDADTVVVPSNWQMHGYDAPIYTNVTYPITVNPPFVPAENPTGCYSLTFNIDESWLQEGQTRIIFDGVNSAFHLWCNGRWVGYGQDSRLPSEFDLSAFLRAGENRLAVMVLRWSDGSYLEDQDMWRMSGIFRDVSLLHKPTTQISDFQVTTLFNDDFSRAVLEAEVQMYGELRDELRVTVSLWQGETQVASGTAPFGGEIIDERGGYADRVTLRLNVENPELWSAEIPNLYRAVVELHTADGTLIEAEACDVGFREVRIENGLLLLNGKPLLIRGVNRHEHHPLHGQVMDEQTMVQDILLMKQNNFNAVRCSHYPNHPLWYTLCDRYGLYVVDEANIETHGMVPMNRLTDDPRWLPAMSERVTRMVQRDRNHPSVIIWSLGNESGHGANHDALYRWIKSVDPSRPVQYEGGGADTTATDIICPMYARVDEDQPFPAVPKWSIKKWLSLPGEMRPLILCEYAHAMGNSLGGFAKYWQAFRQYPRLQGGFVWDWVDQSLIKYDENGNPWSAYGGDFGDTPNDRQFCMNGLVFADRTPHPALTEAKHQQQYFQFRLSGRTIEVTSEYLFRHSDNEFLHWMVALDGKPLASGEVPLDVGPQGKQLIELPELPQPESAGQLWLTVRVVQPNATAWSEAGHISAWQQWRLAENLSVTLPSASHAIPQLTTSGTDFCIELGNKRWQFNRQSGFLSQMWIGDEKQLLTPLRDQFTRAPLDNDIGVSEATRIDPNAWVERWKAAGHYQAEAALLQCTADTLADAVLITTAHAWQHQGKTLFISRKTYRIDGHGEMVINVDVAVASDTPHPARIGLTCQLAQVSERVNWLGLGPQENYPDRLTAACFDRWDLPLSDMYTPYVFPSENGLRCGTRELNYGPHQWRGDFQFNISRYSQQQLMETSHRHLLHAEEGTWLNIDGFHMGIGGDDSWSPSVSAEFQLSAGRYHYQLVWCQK
Procedure: In this in vitro experiment the affinity of different interferor peptides was measured for binding to β-gal by means of surface plasmon resonance (SPR). SPR experiments were performed at 25° C. using a Biacore T100 equipped with CM5 sensor chip (GE Healthcare.). Coupling reagents (N-ethyl-N′-(3-dimethylaminopropyl)carbodiimide (EDC), N-hydroxysuccinimide (NHS) and ethanolamine-HCI) were purchased from GE Healthcare. BSA and β-gal were purchased from Sigma-Aldrich and Roche Diagnostics, respectively. […] The proteins BSA and β-Gal were immobilized respectively, in the reference and sample channels on a CM5 sensor chip by standard amine coupling chemistry at a flow of 10 μl min^−1. The carboxymethyl dextran surface was activated by the injection of a 1:1 ratio of EDC and NHS for 7 minutes. The proteins were diluted in 10 mM sodium-acetate buffer, pH 4.5 to a final concentration of 0.2 mg m1^−1 and injected in short pulses over the activated surface until the immobilization levels reached 4000 RU or 8000 RU, for BSA and β-Gal, respectively. The remaining reactive groups were blocked with 1 M ethanolamine, pH 8. After completion of coupling, the surface was regenerated with short pulses of 50 mM NaOH and 8 M urea to remove non-covalently attached proteins. […] The peptides, dissolved in the running buffer (10 mM sodium phosphate, pH 6.8, 150 mM NaCI, 3 mM EDTA and 0.015% Tween 20) at a concentration of 1 μM, were injected for 60 s at a flow rate of 30 μl min^−1 and then allowed to dissociate for 600 s. The injection was repeated on the same surface as well as on independently immobilized surfaces. The surface was regenerated between each cycle by 30 s pulses of i) 50 mM NaOH, and ii) 8 M urea, and was allowed to stabilize for 400 s before the next cycle.
The peptide dissolved in the running buffer was injected for 60 s at a flow-rate of 301.11min′ over the reference (BSA) and sample (β-Gal) surfaces in a range of concentrations (0-4 μM, with one internal replicate) and were then allowed to dissociate for 600 s. The concentration series were repeated on the same surface (three times) as well as on independently immobilized surfaces. The surface was regenerated between each cycle by 30 s pulses of i) 50 mM NaOH, and ii) 8 M urea, and was allowed to stabilize for 400 s before the next cycle.
The data were globally fitted to a three-state model, using the Biacore T100 software, assuming an initial encounter between the peptide in solution and the protein on the chip followed by a two-step rearrangement before an identical binding site becomes available at the growing β-sheet.

β-Gal [2] = target: T2, β-Gal; settings: equimolar concentrations of enzyme and interferor (10 μM)
Procedure: Enzyme functional readout was performed using the substrate fluorescein-di-I3-D-galactopyranoside (FDG), which is non-fluorescent but on enzymatic cleavage by β-Gal fluorescent fluorescein is liberated with intensity proportional to the catalytic activity.

Procedure for S. epidermidis: Bacteria were grown in a shaking incubator at 37° C. and 160rpm in 50 ml BHI , using individual colonies retrieved from a fresh overnight TSA-sheep blood plate. The cultures were grown to a density of approximately 1×10^8cells/ml and then diluted to 5×10^5 cells/ml in CAMHB (Mc Farland 0.5). Each well contained 100p.I (50p.I of peptide containing MHB plus 50 μl inoculum). The final cell density was 1×10^5 to 5×10^5/ml. After addition of the cell suspension, plates were incubated at 37° C. for 18 to 24 hours. The optical density at 590 nm (OD590) of each well was measured after 5 seconds of shaking the plate using Perkin Elmer spectrophotometer (1420 Multilabel Counter Vicotr 3). […] Each well, where no growth was observed, was also plated on TSA-sheep blood agar plates, incubated at 37° C. overnight and visually inspected.
A microbroth dilution method was used with twofold serial dilutions in CAMHB (according to EMEA guidelines) was used for screening of peptide activity, with concentrations ranging from 0.3 μg/mIto 200 μg/ml.

## DLAVALWFDPPDLAVALWFD [B8]
EGFR family
  ERK1/2 phosphorylation after EGF stimulation: do not inhibit ERK1/2 phosphorylation
mVEGFR2
  cellular localization of VEGFR2: no longer present on the cell surface

## RRLFNFLKRGSRLFNFLKR [Hit24]
Human erythrocytes
  hemolytic activity: no significant hemolytic activity at clinically relevant concentrations
S. aureus
  MIC values against S.aureus ATCC 29213: 12.5 µg/mL
S. epidermidis
  MIC values against S.epidermidis ATCC 12228: 1.5 µg/mL
E. cloacae
  MIC: 25 µg/mL

## RNGIVIVATTR [E1]
Candida albicans SC5314
  biofilm formation (metabolic activity compared to control): significant reduction in biofilm formation

## RFFIGLSRRGSRLFNFLKR [Hit57A]
Human erythrocytes
  hemolytic activity: no significant hemolytic activity at clinically relevant concentrations
S. aureus ATCC 27853
  numbers of bacteria in infected cell monolayers: effectively reduced the numbers of bacteria in infected cell monolayers
S. aureus
  MIC: 50 µg/mL
  MIC in presence of 50% FBS: 100 µg/mL
  MIC values against MRSA 326: 6 µg/mL
Corynebacterium
  MIC values against Corynebacterium: Not active

## (His)6~RVIIWSLGNR [Tango 2 peptide]
β-Gal [1]
  ka1: 2.744E+4
  ka1 (second value printed): 0.02359
  ka3: 0.005491
  kd1: 0.4123
  kd2: 0.02509
  kd3: 0.002654
β-Gal [2]
  enzymatic activity of β-galactosidase: complete inhibition of enzymatic activity
